{"source": "patent US20080261986A1", "about": "“PHARMACEUTICAL FORMULATIONS FOR IONTOPHORETIC DELIVERY OF AN ANTI-FUNGAL DRUG” (priority 2007, published 2008)", "key": {"[1]": {"assay": "Approximate visual solubility in receiver fluids", "type": "physicochemical", "conditions": "aqueous with cosolvent or surfactant or cyclodextrin, Approximate visual solubility", "protocol": "The visual solubility of each receiver fluid shown in Table 3 below was initially tested for ketoconazole (BUFA B.V.) and ciclopirox (PCAS Finland Oy). Additional solubility testing was then conducted for terbinafine hydrochloride (QueMaCo Ltd.), amorolfine hydrochloride (Inter-Chemical Ltd.) and itraconazole EP (Shamrock, UK) and the results are shown in Table 3.\nThe solubility of terbinafine hydrochloride, fluconazole, itraconazole and amorolfine hydrochloride was determined in PBS and 5% Tween 80 and the results are summarized in Table 4."}, "[2]": {"assay": "Saturated solubility of terbinafine HCl in various solvents", "type": "physicochemical", "conditions": "thermodynamic from solid, n = 3", "protocol": "In order to establish a suitable receiver fluid for use in permeation studies, the saturated solubility of terbinafine HCl at room temperature was determined in various solvents such as, water, phosphate buffered saline (PBS), PBS with 5% Tween-80 (PBS-T), citrate buffer and sodium phosphate buffer. The drug was added to each of the solvents until visual saturation was obtained and the mixtures were left at controlled temperature (19° C.) for 24 hours. The saturated drug solution was filtered and solubility of the drug was determined by UV spectrophotometer."}, "[3]": {"assay": "Effect of Tween-20 and Tween-80 on terbinafine HCl solubility in water and PBS", "type": "physicochemical", "conditions": "thermodynamic from solid, n = 3", "protocol": "The influence of Tween-20 and Tween-80 on terbinafine HCl solubility in water and PBS was determined. The drug was added to each of the solvents until visual saturation was obtained, then left at controlled temperature (19° C.) or 24 hours. The saturated solutions were filtered and drug solubility in the filtrate was determined by UV spectrophotometer."}, "[4]": {"assay": "Permeation through hoof membrane in Franz diffusion cell, passive versus iontophoretic", "type": "in vitro ADME, bovine", "protocol": "The permeation experiments were conducted to optimize the parameters for iontophoretically-assisted terbinafine HCl into the hoof membrane. In these experiments bovine hoof membranes (˜0.250 mm thickness) were used as a model for human nail plates. The prehydrated (in water for 60 min) hoof membrane was sandwiched between the donor and receptor compartments of Franz diffusion cell (FDC). The receptor compartment was filled with receiver fluid (5 ml of PBS-5% Tween 80 (T80), water or water-T80 as indicated) and the set up was visually examined for any leaks by inverting the FDC. Two ml of drug solutions (5-10 mg/ml) or suspensions (5-10 mg/ml) were placed in the donor compartment of the Franz diffusion cell. […] Aliquots (50 μl) of the receptor phase were taken every 15 minutes for the first two hours and every hour subsequently for 8 h. A last aliquot was taken at 24 h. Some experiments were conducted for longer in which case aliquots were taken daily. […] Control passive experiments were conducted in the same way except for the application of electric current. Data were expressed as means ±standard deviations. All experiments were performed in triplicate. Drug permeation was measured as described above for up to 24 hours (n=3). For iontophoretic permeation, current density of 1 mA cm^2 was applied for 1 hr using carbon electrodes. […]"}}, "note": "Counter-ions that a name gives are not always drawn.", "data": [{"molecule": "CN(C/C=C/C#CC(C)(C)C)Cc1cccc2ccccc12", "note": "[terbinafine HCl, (E)-N-(6,6-dimethyl-2-hepten-4-ynyl)-N-methyl-1-naphthylmethamine hydrochloride]", "values": [{"measurement": "solubility", "setting": "[1]", "result": "> 5000", "unit": "µg/mL"}, {"measurement": "solubility at 24 h", "setting": "[2]; aqueous buffer, Citrate buffer, pH 5, 19° C.", "result": 1810, "unit": "µg/mL"}, {"measurement": "solubility at 24 h", "setting": "[2]; aqueous buffer, PBS, pH 7.4, 19° C.", "result": 1320, "unit": "µg/mL"}, {"measurement": "solubility at 24 h", "setting": "[2]; aqueous with cosolvent or surfactant or cyclodextrin, PBS-T (PBS with 5% Tween-80), pH 6.8, 19° C.", "result": 6020, "unit": "µg/mL"}, {"measurement": "solubility at 24 h", "setting": "[2]; Distilled water, pH 5.8, 19° C.", "result": 6370, "unit": "µg/mL"}, {"measurement": "solubility at 24 h", "setting": "[3]; aqueous buffer, PBS, 19° C.", "result": 1320, "unit": "µg/mL"}, {"measurement": "solubility at 24 h", "setting": "[3]; aqueous with cosolvent or surfactant or cyclodextrin, PBS and 5% Tween-20, 19° C.", "result": "5220 ± 20", "unit": "µg/mL"}, {"measurement": "solubility at 24 h", "setting": "[3]; aqueous with cosolvent or surfactant or cyclodextrin, PBS and 5% Tween-80, 19° C.", "result": "6530 ± 60", "unit": "µg/mL"}, {"measurement": "solubility at 24 h", "setting": "[3]; aqueous with cosolvent or surfactant or cyclodextrin, Water and 5% Tween-20, 19° C.", "result": "10600 ± 660", "unit": "µg/mL"}, {"measurement": "solubility at 24 h", "setting": "[3]; aqueous with cosolvent or surfactant or cyclodextrin, Water and 5% Tween-80, 19° C.", "result": "11500 ± 640", "unit": "µg/mL"}, {"measurement": "solubility at 24 h", "setting": "[3]; Distilled water, 19° C.", "result": "6370 ± 310", "unit": "µg/mL"}, {"measurement": "time at which iontophoretic drug permeation leveled off", "setting": "[4]; bovine, 10 mg/ml", "result": "about 8 hrs"}, {"measurement": "drug concentration in the receptor phase", "setting": "[4]; passive delivery, at 24 h, water-T80 and 10 mg/ml drug solution, average of replicates", "result": 20, "unit": "ng/mL"}]}]}
